Measurements published in ChEMBL document CHEMBL5506031, “Design, Synthesis, Bioactive Evaluation, and Molecular Dynamics Simulation of Novel 4H-Pyrano[3,2-c]pyridine Analogues as Potential Sterol 14α-Demethylase (CYP51) Inhibitors” (J Med Chem, 2024).
Converted amounts (≈) assume the structure as drawn.

tested on: Sclerotinia sclerotiorum; assay: Fungicidal activity against Sclerotinia sclerotiorum assessed as fungal inhibitory rate at 16 ug/ml relative to control; type: functional

**Q.** For `COC(=O)C1=C(N)OC2=C(CN(C(=O)c3cccs3)C/C2=C\c2ccc(Cl)s2)C1c1ccc(Cl)s1` (stereo not drawn), which inhibition at 16 µg/mL is on record?
**A.** Its inhibition at 16 µg/mL is 74.1%.

**Q.** For `N#CC1=C(N)OC2=C(CN(C(=O)c3cccs3)C/C2=C\c2ccc(Cl)s2)C1c1ccc(Cl)s1` (stereo not drawn), which inhibition at 16 µg/mL is on record?
**A.** Its inhibition at 16 µg/mL is 50.8%.

**Q.** For `COC(=O)C1=C(N)OC2=C(CN(C(=O)c3cccs3)C/C2=C\c2cccs2)C1c1cccs1` (stereo not drawn), which inhibition at 16 µg/mL is on record?
**A.** Its inhibition at 16 µg/mL is 40.5%.

**Q.** For `N#CC1=C(N)OC2=C(CN(C(=O)c3ccco3)C/C2=C\c2ccc(Cl)s2)C1c1ccc(Cl)s1` (stereo not drawn), which inhibition at 16 µg/mL is on record?
**A.** The inhibition at 16 µg/mL was 53.5%.

**Q.** Which inhibition at 16 µg/mL does the source give for `N#CC1=C(N)OC2=C(CN(C(=O)c3cccs3)C/C2=C\c2cccs2)C1c1cccs1` (stereo not drawn) here?
**A.** Its inhibition at 16 µg/mL is 37.6%.

**Q.** Which inhibition at 16 µg/mL does the source give for `CN1CC2=C(OC(N)=C(C#N)C2c2ccc(Br)s2)/C(=C/c2ccc(Br)s2)C1` (stereo not drawn) here?
**A.** Its inhibition at 16 µg/mL is 60.7%.

**Q.** With `CN1CC2=C(OC(N)=C(C#N)C2c2cccs2)/C(=C/c2cccs2)C1` (stereo not drawn) as the compound, how does the inhibition at 16 µg/mL read?
**A.** Its inhibition at 16 µg/mL is 68.8%.

**Q.** Which inhibition at 16 µg/mL does the source give for `Cc1ccc(/C=C2\CN(C(=O)c3ccco3)CC3=C2OC(N)=C(C#N)C3c2ccc(C)o2)o1` (stereo not drawn) here?
**A.** Its inhibition at 16 µg/mL is 46.2%.

**Q.** Which inhibition at 16 µg/mL does the source give for `N#CC1=C(N)OC2=C(CN(C(=O)c3ccco3)C/C2=C\c2ccco2)C1c1ccco1` (stereo not drawn) here?
**A.** The inhibition at 16 µg/mL was 65.4%.

tested on: Colletotrichum lagenaria; assay: Fungicidal activity against Colletotrichum lagenarium assessed as fungal inhibitory rate at 16 ug/ml relative to control; type: functional

**Q.** With `COC(=O)C1=C(N)OC2=C(CN(C(=O)c3cccs3)C/C2=C\c2ccc(Cl)s2)C1c1ccc(Cl)s1` (stereo not drawn) as the compound, how does the inhibition at 16 µg/mL read?
**A.** Its inhibition at 16 µg/mL is 72.2%.

**Q.** Which inhibition at 16 µg/mL does the source give for `N#CC1=C(N)OC2=C(CN(C(=O)c3cccs3)C/C2=C\c2ccc(Cl)s2)C1c1ccc(Cl)s1` (stereo not drawn) here?
**A.** Its inhibition at 16 µg/mL is 48.7%.

**Q.** With `COC(=O)C1=C(N)OC2=C(CN(C(=O)c3cccs3)C/C2=C\c2cccs2)C1c1cccs1` (stereo not drawn) as the compound, how does the inhibition at 16 µg/mL read?
**A.** The inhibition at 16 µg/mL was 36.4%.

**Q.** Which inhibition at 16 µg/mL does the source give for `N#CC1=C(N)OC2=C(CN(C(=O)c3ccco3)C/C2=C\c2ccc(Cl)s2)C1c1ccc(Cl)s1` (stereo not drawn) here?
**A.** Its inhibition at 16 µg/mL is 52.5%.

**Q.** For `N#CC1=C(N)OC2=C(CN(C(=O)c3cccs3)C/C2=C\c2cccs2)C1c1cccs1` (stereo not drawn), which inhibition at 16 µg/mL is on record?
**A.** The inhibition at 16 µg/mL was 33.7%.

**Q.** For `CN1CC2=C(OC(N)=C(C#N)C2c2ccc(Br)s2)/C(=C/c2ccc(Br)s2)C1` (stereo not drawn), which inhibition at 16 µg/mL is on record?
**A.** Its inhibition at 16 µg/mL is 60.5%.

**Q.** For `CN1CC2=C(OC(N)=C(C#N)C2c2cccs2)/C(=C/c2cccs2)C1` (stereo not drawn), which inhibition at 16 µg/mL is on record?
**A.** Its inhibition at 16 µg/mL is 70.9%.

tested on: Botrytis cinerea; assay: Fungicidal activity against Botrytis cinerea assessed as fungal inhibitory rate at 16 ug/ml relative to control; type: functional

**Q.** For `COC(=O)C1=C(N)OC2=C(CN(C(=O)c3cccs3)C/C2=C\c2ccc(Cl)s2)C1c1ccc(Cl)s1` (stereo not drawn), which inhibition at 16 µg/mL is on record?
**A.** The inhibition at 16 µg/mL was 100%.

**Q.** Which inhibition at 16 µg/mL does the source give for `N#CC1=C(N)OC2=C(CN(C(=O)c3cccs3)C/C2=C\c2ccc(Cl)s2)C1c1ccc(Cl)s1` (stereo not drawn) here?
**A.** The inhibition at 16 µg/mL was 92.9%.

**Q.** With `COC(=O)C1=C(N)OC2=C(CN(C(=O)c3cccs3)C/C2=C\c2cccs2)C1c1cccs1` (stereo not drawn) as the compound, how does the inhibition at 16 µg/mL read?
**A.** The inhibition at 16 µg/mL was 78.4%.

**Q.** With `N#CC1=C(N)OC2=C(CN(C(=O)c3ccco3)C/C2=C\c2ccc(Cl)s2)C1c1ccc(Cl)s1` (stereo not drawn) as the compound, how does the inhibition at 16 µg/mL read?
**A.** Its inhibition at 16 µg/mL is 94%.

**Q.** For `N#CC1=C(N)OC2=C(CN(C(=O)c3cccs3)C/C2=C\c2cccs2)C1c1cccs1` (stereo not drawn), which inhibition at 16 µg/mL is on record?
**A.** The inhibition at 16 µg/mL was 73.6%.

**Q.** For `CN1CC2=C(OC(N)=C(C#N)C2c2ccc(Br)s2)/C(=C/c2ccc(Br)s2)C1` (stereo not drawn), which inhibition at 16 µg/mL is on record?
**A.** Its inhibition at 16 µg/mL is 44.8%.

**Q.** With `CN1CC2=C(OC(N)=C(C#N)C2c2cccs2)/C(=C/c2cccs2)C1` (stereo not drawn) as the compound, how does the inhibition at 16 µg/mL read?
**A.** Its inhibition at 16 µg/mL is 50.2%.

**Q.** Which inhibition at 16 µg/mL does the source give for `Cc1ccc(/C=C2\CN(C(=O)c3ccco3)CC3=C2OC(N)=C(C#N)C3c2ccc(C)o2)o1` (stereo not drawn) here?
**A.** The inhibition at 16 µg/mL was 85.4%.

**Q.** Which inhibition at 16 µg/mL does the source give for `N#CC1=C(N)OC2=C(CN(C(=O)c3ccco3)C/C2=C\c2ccco2)C1c1ccco1` (stereo not drawn) here?
**A.** Its inhibition at 16 µg/mL is 100%.

tested on: Penicillium digitatum; assay: Fungicidal activity against Penicillium digitatum assessed as fungal inhibitory rate at 16 ug/ml relative to control; type: functional

**Q.** With `COC(=O)C1=C(N)OC2=C(CN(C(=O)c3cccs3)C/C2=C\c2ccc(Cl)s2)C1c1ccc(Cl)s1` (stereo not drawn) as the compound, how does the inhibition at 16 µg/mL read?
**A.** The inhibition at 16 µg/mL was 67.5%.

**Q.** Which inhibition at 16 µg/mL does the source give for `N#CC1=C(N)OC2=C(CN(C(=O)c3cccs3)C/C2=C\c2ccc(Cl)s2)C1c1ccc(Cl)s1` (stereo not drawn) here?
**A.** Its inhibition at 16 µg/mL is 44.8%.

**Q.** Which inhibition at 16 µg/mL does the source give for `COC(=O)C1=C(N)OC2=C(CN(C(=O)c3cccs3)C/C2=C\c2cccs2)C1c1cccs1` (stereo not drawn) here?
**A.** The inhibition at 16 µg/mL was 33.8%.

**Q.** With `N#CC1=C(N)OC2=C(CN(C(=O)c3ccco3)C/C2=C\c2ccc(Cl)s2)C1c1ccc(Cl)s1` (stereo not drawn) as the compound, how does the inhibition at 16 µg/mL read?
**A.** The inhibition at 16 µg/mL was 47.1%.

**Q.** With `N#CC1=C(N)OC2=C(CN(C(=O)c3cccs3)C/C2=C\c2cccs2)C1c1cccs1` (stereo not drawn) as the compound, how does the inhibition at 16 µg/mL read?
**A.** The inhibition at 16 µg/mL was 30.2%.

**Q.** Which inhibition at 16 µg/mL does the source give for `CN1CC2=C(OC(N)=C(C#N)C2c2ccc(Br)s2)/C(=C/c2ccc(Br)s2)C1` (stereo not drawn) here?
**A.** The inhibition at 16 µg/mL was 42.5%.

**Q.** With `Cc1ccc(/C=C2\CN(C(=O)c3ccco3)CC3=C2OC(N)=C(C#N)C3c2ccc(C)o2)o1` (stereo not drawn) as the compound, how does the inhibition at 16 µg/mL read?
**A.** Its inhibition at 16 µg/mL is 39%.

**Q.** With `N#CC1=C(N)OC2=C(CN(C(=O)c3ccco3)C/C2=C\c2ccco2)C1c1ccco1` (stereo not drawn) as the compound, how does the inhibition at 16 µg/mL read?
**A.** The inhibition at 16 µg/mL was 58.2%.

tested on: Fusarium oxysporum; assay: Fungicidal activity against Fusarium oxysporum assessed as fungal inhibitory rate at 16 ug/ml relative to control; type: functional

**Q.** For `COC(=O)C1=C(N)OC2=C(CN(C(=O)c3cccs3)C/C2=C\c2ccc(Cl)s2)C1c1ccc(Cl)s1` (stereo not drawn), which inhibition at 16 µg/mL is on record?
**A.** Its inhibition at 16 µg/mL is 72.8%.

**Q.** For `N#CC1=C(N)OC2=C(CN(C(=O)c3cccs3)C/C2=C\c2ccc(Cl)s2)C1c1ccc(Cl)s1` (stereo not drawn), which inhibition at 16 µg/mL is on record?
**A.** The inhibition at 16 µg/mL was 43.5%.

**Q.** For `COC(=O)C1=C(N)OC2=C(CN(C(=O)c3cccs3)C/C2=C\c2cccs2)C1c1cccs1` (stereo not drawn), which inhibition at 16 µg/mL is on record?
**A.** The inhibition at 16 µg/mL was 31.5%.

**Q.** Which inhibition at 16 µg/mL does the source give for `N#CC1=C(N)OC2=C(CN(C(=O)c3ccco3)C/C2=C\c2ccc(Cl)s2)C1c1ccc(Cl)s1` (stereo not drawn) here?
**A.** The inhibition at 16 µg/mL was 46.6%.

**Q.** For `CN1CC2=C(OC(N)=C(C#N)C2c2ccc(Br)s2)/C(=C/c2ccc(Br)s2)C1` (stereo not drawn), which inhibition at 16 µg/mL is on record?
**A.** Its inhibition at 16 µg/mL is 31.2%.

**Q.** For `CN1CC2=C(OC(N)=C(C#N)C2c2cccs2)/C(=C/c2cccs2)C1` (stereo not drawn), which inhibition at 16 µg/mL is on record?
**A.** Its inhibition at 16 µg/mL is 38.9%.

**Q.** For `Cc1ccc(/C=C2\CN(C(=O)c3ccco3)CC3=C2OC(N)=C(C#N)C3c2ccc(C)o2)o1` (stereo not drawn), which inhibition at 16 µg/mL is on record?
**A.** Its inhibition at 16 µg/mL is 38.1%.

tested on: Botrytis cinerea; assay: Fungicidal activity against Botrytis cinerea assessed as fungal growth reduction; type: functional, organism-based

**Q.** With `COC(=O)C1=C(N)OC2=C(CN(C(=O)c3cccs3)C/C2=C\c2ccc(Cl)s2)C1c1ccc(Cl)s1` (stereo not drawn) as the compound, how does the EC50 read?
**A.** Its EC50 is 0.824 µg/mL (≈ 1.46 µM).

**Q.** With `N#CC1=C(N)OC2=C(CN(C(=O)c3cccs3)C/C2=C\c2ccc(Cl)s2)C1c1ccc(Cl)s1` (stereo not drawn) as the compound, how does the EC50 read?
**A.** Its EC50 is 2.25 µg/mL (≈ 4.22 µM).

**Q.** With `N#CC1=C(N)OC2=C(CN(C(=O)c3ccco3)C/C2=C\c2ccc(Cl)s2)C1c1ccc(Cl)s1` (stereo not drawn) as the compound, how does the EC50 read?
**A.** Its EC50 is 2.07 µg/mL (≈ 4.01 µM).

**Q.** For `N#CC1=C(N)OC2=C(CN(C(=O)c3ccco3)C/C2=C\c2ccco2)C1c1ccco1` (stereo not drawn), which EC50 is on record?
**A.** Its EC50 is 1.17 µg/mL (≈ 2.82 µM).

tested on: not listed separately; assay: Inhibition of Botrytis cinerea CYP51 by ELISA

**Q.** Which IC50 does the source give for `COC(=O)C1=C(N)OC2=C(CN(C(=O)c3cccs3)C/C2=C\c2ccc(Cl)s2)C1c1ccc(Cl)s1` (stereo not drawn) here?
**A.** The IC50 was 0.907 µg/mL (≈ 1.6 µM).

**Q.** For `N#CC1=C(N)OC2=C(CN(C(=O)c3cccs3)C/C2=C\c2ccc(Cl)s2)C1c1ccc(Cl)s1` (stereo not drawn), which IC50 is on record?
**A.** The IC50 was 2.625 µg/mL (≈ 4.93 µM).

**Q.** Which IC50 does the source give for `N#CC1=C(N)OC2=C(CN(C(=O)c3ccco3)C/C2=C\c2ccc(Cl)s2)C1c1ccc(Cl)s1` (stereo not drawn) here?
**A.** The IC50 was 2.333 µg/mL (≈ 4.52 µM).

**Q.** For `N#CC1=C(N)OC2=C(CN(C(=O)c3ccco3)C/C2=C\c2ccco2)C1c1ccco1` (stereo not drawn), which IC50 is on record?
**A.** The IC50 was 1.425 µg/mL (≈ 3.43 µM).
